The values below are quoted from earlier work in article PMC12087591 (Drug Design, Development and Therapy, 2025).

The subject of the data set is COVID-19. The settings on record: unvaccinated COVID-19 patients.

Structures are written as SMILES.

On to `CC(C)(C)[C@H](NC(=O)C(F)(F)F)C(=O)N1C[C@H]2[C@@H]([C@H]1C(=O)N[C@H](C#N)C[C@@H]1CCNC1=O)C2(C)C` [nirmatrelvir], for which the “reduction of hospitalization risk” value is listed as 89%.
